Test results as given in the NIST ThermoML archive (doi:10.1021/acs.jced.8b00814).
Numbers after ± are expanded uncertainties.

Details: 101.33 kPa, Liquid, Vibrating tube method

O [water]
Details | mass density [kg/m3]
283.15 K | 999.66 ± 1.9
308.15 K | 994.11 ± 1.9
313.15 K | 992.32 ± 1.9
318.15 K | 990.34 ± 1.9
323.15 K | 988.18 ± 1.9
328.15 K | 985.87 ± 1.9
333.15 K | 983.4 ± 1.9
338.15 K | 980.78 ± 1.9
343.15 K | 978.02 ± 1.9
348.15 K | 975.13 ± 1.9
353.15 K | 972.11 ± 1.9
358.15 K | 968.95 ± 1.9
363.15 K | 965.71 ± 1.9
